Two compounds from patent US10919841B2, “Monoamine reuptake inhibitors” (Research Triangle Institute, priority 2009, dated 2021) can be followed below.

In general, Ki refers to the dissociation constant of the complex between target and ligand, obtained from inhibition or displacement. One may read the IC50 as the concentration that inhibits the measured activity by half. By ED50 is commonly meant the dose that gives a 50% effect, or the effect in half of the subjects.

T2 sequence (P23975 whole entry): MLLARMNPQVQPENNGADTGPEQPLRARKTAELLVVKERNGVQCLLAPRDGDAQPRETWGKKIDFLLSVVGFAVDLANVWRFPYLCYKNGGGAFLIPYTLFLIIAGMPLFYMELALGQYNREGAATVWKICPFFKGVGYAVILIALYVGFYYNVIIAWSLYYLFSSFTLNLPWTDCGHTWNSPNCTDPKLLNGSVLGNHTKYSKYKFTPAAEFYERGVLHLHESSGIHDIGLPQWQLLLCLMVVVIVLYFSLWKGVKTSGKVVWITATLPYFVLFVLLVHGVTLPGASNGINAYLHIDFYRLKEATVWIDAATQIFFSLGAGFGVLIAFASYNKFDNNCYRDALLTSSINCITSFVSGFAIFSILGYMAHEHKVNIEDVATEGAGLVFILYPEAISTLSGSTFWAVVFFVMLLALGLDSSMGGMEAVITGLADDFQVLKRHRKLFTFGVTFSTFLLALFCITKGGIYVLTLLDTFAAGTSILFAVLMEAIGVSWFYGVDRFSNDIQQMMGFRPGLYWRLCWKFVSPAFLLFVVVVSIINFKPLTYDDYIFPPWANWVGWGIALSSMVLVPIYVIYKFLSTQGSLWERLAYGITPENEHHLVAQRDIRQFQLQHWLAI

In the first assay the target is T1, (h)DAT (Homo sapiens, UniProt Q01959).
T1 construct: expressed in transfected cells
T1 sequence (Q01959 whole entry): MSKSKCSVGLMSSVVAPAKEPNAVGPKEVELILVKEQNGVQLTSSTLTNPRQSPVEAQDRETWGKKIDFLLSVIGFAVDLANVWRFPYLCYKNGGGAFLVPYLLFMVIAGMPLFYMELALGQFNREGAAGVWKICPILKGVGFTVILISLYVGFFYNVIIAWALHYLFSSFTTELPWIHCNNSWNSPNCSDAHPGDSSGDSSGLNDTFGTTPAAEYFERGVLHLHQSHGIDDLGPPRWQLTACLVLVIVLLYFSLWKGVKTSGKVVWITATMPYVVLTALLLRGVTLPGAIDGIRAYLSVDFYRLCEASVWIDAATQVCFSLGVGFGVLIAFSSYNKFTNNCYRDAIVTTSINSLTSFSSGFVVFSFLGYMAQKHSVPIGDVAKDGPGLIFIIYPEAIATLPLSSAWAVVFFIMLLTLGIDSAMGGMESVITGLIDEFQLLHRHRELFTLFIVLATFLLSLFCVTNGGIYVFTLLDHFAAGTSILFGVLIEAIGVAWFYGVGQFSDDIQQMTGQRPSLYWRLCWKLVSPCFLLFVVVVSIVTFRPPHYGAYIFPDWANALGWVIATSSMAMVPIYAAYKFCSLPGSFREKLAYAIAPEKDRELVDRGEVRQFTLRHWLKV
As to the kind of experiment: competition binding with [125I]RTI-55 at (h)DAT stably expressed in HEK293 cells. The note with it: mean ± standard error of three independent experiments.
Consider `CCCCC(NC(C)(C)C)C(=O)c1cccc(Cl)c1` (stereo not shown) [Compound 2q, 2-(N-tert-Butylamino)-3′-chlorohexanophenone], for which the affinity, expressed as Ki, was 350 nM.

As for `CC(C(=O)c1cccc(Cl)c1)N(C)C` (stereo not shown) [Compound 2dd, 2-(N,N-Dimethylamino)-3′-chloropropiophenone], the Ki is 4130 nM.

Another assay concerns the target T1, (h)DAT. The assay is described as follows: block of [3H]dopamine reuptake in HEK-(h)DAT cells. Format: cell-based. The note with it: [3H]DA; read-out: IC50 for DA uptake inhibition.
As to `CCCCC(NC(C)(C)C)C(=O)c1cccc(Cl)c1` (stereo not shown) [Compound 2q, 2-(N-tert-Butylamino)-3′-chlorohexanophenone], the IC50 was found to be 69 nM.

For `CC(C(=O)c1cccc(Cl)c1)N(C)C` (stereo not shown) [Compound 2dd, 2-(N,N-Dimethylamino)-3′-chloropropiophenone], the IC50 was 1530 nM.

The same assay, now with this note: relative to bupropion.
Turning to `CCCCC(NC(C)(C)C)C(=O)c1cccc(Cl)c1` (stereo not shown) [Compound 2q, 2-(N-tert-Butylamino)-3′-chlorohexanophenone], the “times more potent than bupropion as DA uptake inhibitor” value came to 14 times.

For a further assay, the system named is mice. The assay is described as follows: locomotor activity, 1-h observation protocol. As to conditions: Mus musculus, 0.5 h, read-out: Locomotor Activity 1-Hour % Peak Cocaine. The assay is classed as in vivo.
With `CCCCC(NC(C)(C)C)C(=O)c1cccc(Cl)c1` (stereo not shown) [Compound 2q, 2-(N-tert-Butylamino)-3′-chlorohexanophenone], the Emax is 81%.

Consider `CC(C(=O)c1cccc(Cl)c1)N(C)C` (stereo not shown) [Compound 2dd, 2-(N,N-Dimethylamino)-3′-chloropropiophenone], for which the Emax came to 100%.

The same assay, now with this note: Mus musculus; dose to produce 50% of the compound's maximal effect; 1-h.
`CCCCC(NC(C)(C)C)C(=O)c1cccc(Cl)c1` (stereo not shown) [Compound 2q, 2-(N-tert-Butylamino)-3′-chlorohexanophenone] came in with an ED50 of 13.5 mg/kg.

In turn, `CC(C(=O)c1cccc(Cl)c1)N(C)C` (stereo not shown) [Compound 2dd, 2-(N,N-Dimethylamino)-3′-chloropropiophenone] yielded an ED50 of 11 mg/kg.

The next assay concerns mice. The assay is described as follows: locomotor activity, 8-h time course protocol. Format: in vivo. The note with it: 1-h and 8-h tests compared.
With `CC(C(=O)c1cccc(Cl)c1)N(C)C` (stereo not shown) [Compound 2dd, 2-(N,N-Dimethylamino)-3′-chloropropiophenone], the “locomotor stimulant activity across the 1-h and 8-h protocols, in words” value is given as “activity similar to cocaine in the 1-h protocol but weakened significantly in the 8-h time-course study”.

Staying with this assay, now noted: Mus musculus, read-out: Locomotor Activity 8-Hour % Peak Cocaine, percent of cocaine's maximal effect, 30 min period of maximum stimulation.
In the case of `CCCCC(NC(C)(C)C)C(=O)c1cccc(Cl)c1` (stereo not shown) [Compound 2q, 2-(N-tert-Butylamino)-3′-chlorohexanophenone], the Emax stood at 110%.

For the compound `CC(C(=O)c1cccc(Cl)c1)N(C)C` (stereo not shown) [Compound 2dd, 2-(N,N-Dimethylamino)-3′-chloropropiophenone], the Emax was found to be 52%.

Still in this assay, the particulars now being: Mus musculus; dose to produce 50% of the compound's maximal effect; 8-h; read-out: Locomotor Activity 8-Hour ED50.
For the compound `CCCCC(NC(C)(C)C)C(=O)c1cccc(Cl)c1` (stereo not shown) [Compound 2q, 2-(N-tert-Butylamino)-3′-chlorohexanophenone], the ED50 came to 13.1 mg/kg.

Turning to `CC(C(=O)c1cccc(Cl)c1)N(C)C` (stereo not shown) [Compound 2dd, 2-(N,N-Dimethylamino)-3′-chloropropiophenone], the ED50 is 13.9 mg/kg.

Staying with this assay, now noted: duration of locomotor activity.
As to `CCCCC(NC(C)(C)C)C(=O)c1cccc(Cl)c1` (stereo not shown) [Compound 2q, 2-(N-tert-Butylamino)-3′-chlorohexanophenone], the “Locomotor Activity 8-Hour Time, min Period, length” value was in the range of 40 to 460 min.

Take `CC(C(=O)c1cccc(Cl)c1)N(C)C` (stereo not shown) [Compound 2dd, 2-(N,N-Dimethylamino)-3′-chloropropiophenone]: the “Locomotor Activity 8-Hour Time, min Period, length” value was in the range of 180 to 190 min.

The assay is the same for the next values; noted with them: time period of maximum effect.
As for `CCCCC(NC(C)(C)C)C(=O)c1cccc(Cl)c1` (stereo not shown) [Compound 2q, 2-(N-tert-Butylamino)-3′-chlorohexanophenone], the “Locomotor Activity 8-Hour Time, min Period, max” value was 0 to 30 min.

`CC(C(=O)c1cccc(Cl)c1)N(C)C` (stereo not shown) [Compound 2dd, 2-(N,N-Dimethylamino)-3′-chloropropiophenone]: the “Locomotor Activity 8-Hour Time, min Period, max” value is 90 to 120 min.

Another assay addresses T2, (h)NET (Homo sapiens, UniProt P23975). The assay is described as follows: block of [3H]norepinephrine reuptake in HEK-(h)NET cells. As to conditions: read-out: Uptake, IC50 [3H]NE; mean ± standard error of three independent experiments.
Regarding `CCCCC(NC(C)(C)C)C(=O)c1cccc(Cl)c1` (stereo not shown) [Compound 2q, 2-(N-tert-Butylamino)-3′-chlorohexanophenone], the IC50 is 400 nM.

As to `CC(C(=O)c1cccc(Cl)c1)N(C)C` (stereo not shown) [Compound 2dd, 2-(N,N-Dimethylamino)-3′-chloropropiophenone], the IC50 came to 1260 nM.

The subject of another assay is rats. The assay is described as follows: cocaine discrimination (2-lever operant), i.p. administration. As to conditions: Rattus norvegicus, ip, read-out: % cocaine lever responding.
Take `CCCCC(NC(C)(C)C)C(=O)c1cccc(Cl)c1` (stereo not shown) [Compound 2q, 2-(N-tert-Butylamino)-3′-chlorohexanophenone]: the responders at 5 mg/kg came to 1%, the responders at 10 mg/kg was found to be 67% and the responders at 25 mg/kg came to 10%.

As for `CC(C(=O)c1cccc(Cl)c1)N(C)C` (stereo not shown) [Compound 2dd, 2-(N,N-Dimethylamino)-3′-chloropropiophenone], the responders at 5 mg/kg was found to be 0%, the responders at 10 mg/kg worked out at 83%, the responders at 25 mg/kg is 83% and the responders at 50 mg/kg came out at 10%.

The same assay, now with this note: Rattus norvegicus, ip, read-out: ED50 for cocaine generalization.
On to `CC(C(=O)c1cccc(Cl)c1)N(C)C` (stereo not shown) [Compound 2dd, 2-(N,N-Dimethylamino)-3′-chloropropiophenone], for which the ED50 turned out to be 4.84 mg/kg.

The same assay, now with this note: Rattus norvegicus, ip, read-out: Full Generalization ED50.
For `CCCCC(NC(C)(C)C)C(=O)c1cccc(Cl)c1` (stereo not shown) [Compound 2q, 2-(N-tert-Butylamino)-3′-chlorohexanophenone], the ED50 worked out at 8.17 mg/kg.

With `CC(C(=O)c1cccc(Cl)c1)N(C)C` (stereo not shown) [Compound 2dd, 2-(N,N-Dimethylamino)-3′-chloropropiophenone], the ED50 is 4.84 mg/kg.

In the next assay the test system is rats. The assay is described as follows: cocaine discrimination time-course study, oral administration. As to conditions: Rattus norvegicus, po, 0.75 h.
Compound `CCCCC(NC(C)(C)C)C(=O)c1cccc(Cl)c1` (stereo not shown) [Compound 2q, 2-(N-tert-Butylamino)-3′-chlorohexanophenone] had an ED50 of 37.9 mg/kg.

`CC(C(=O)c1cccc(Cl)c1)N(C)C` (stereo not shown) [Compound 2dd, 2-(N,N-Dimethylamino)-3′-chloropropiophenone] yielded an ED50 of 5.36 mg/kg.

The next assay has as its target T2, (h)NET. The assay is described as follows: competition binding with [125I]RTI-55 at (h)NET stably expressed in HEK293 cells. As to conditions: read-out: Binding, Ki NET; mean ± standard error of three independent experiments.
Consider `CCCCC(NC(C)(C)C)C(=O)c1cccc(Cl)c1` (stereo not shown) [Compound 2q, 2-(N-tert-Butylamino)-3′-chlorohexanophenone], for which the Ki is 3190 nM.

`CC(C(=O)c1cccc(Cl)c1)N(C)C` (stereo not shown) [Compound 2dd, 2-(N,N-Dimethylamino)-3′-chloropropiophenone]: the Ki was 3090 nM.
